# Experimental data published in US20250134874A1, “PHARMACEUTICAL FORMULATIONS COMPRISING 3-({[(4R)-7-{METHYL[4-(PROPAN-2-YL)PHENYL]AMINO}-3,4-DIHYDRO-2H-1-BENZOPYRAN-4-YL]METHYL}AMINO)PYRIDINE-4-CARBOXYLIC ACID” (TACHYON THERAPEUTICS, INC., priority 2021, published 2025).
# System: 301 cancer cell lines from different tumor types (OncoPanel; HD Biosciences)
# Experiment: 2D cell viability inhibition assay (CellTiter-Glo) in cancer cell line panel
# Assay type: cell-based
# Parameters: key to AUC: AUC as fraction of the no-inhibition area (dose range × 0–100 % of control)
# Conditions: for Emax: in %
# Procedure: In a larger screening study, compound 1 was evaluated across a broad cancer cell line panel (OncoPanel; HD Biosciences) composed of 301 cancer cell lines from different tumor types.
# 2D cell viability inhibition assays were performed in multiwell plates seeded with cells from the panel. After seeding, the plates were cultured overnight in a humidified incubator at 37° C. to promote adherence. Assays were initiated in individual wells by adding either DMSO as a vehicle control, growth media as a blank, or serially diluted compound 1 (10 μM to 0.0005 μM with 1:3 serial dilution). Cultures were incubated for 168 hours after which the number of viable cells in each test well was assessed using the CellTiter-Glo® Luminescent Cell Viability Assay. Luminescence readouts were performed using an EnVision® Multilabel Reader and the compound 1 readouts were normalized to the DMSO control readouts, expressed as a percent of the control. Outliers were flagged out by visual inspection. Percent of control was plotted against the corresponding compound 1 concentration and the absolute IC50 value was determined using four-parameter logistic non-linear regression as the concentration where inhibition was 50% of the control. For maximum inhibition <50%, the absolute IC50 was reported as >10. In addition to EC50 and IC50, AUC was determined and was normalized to the area corresponding to theoretical no-inhibition (the rectangular area defined by the compound dose range and 0 to 100 in y). Emax was recorded as the minimum in y with the compound dose range. For those cell lines where Emax>40, EC50 was manually set to 10 μM. A hierarchical clustering algorithm based on Euclidean distance between the standardized input values and “Ward.D” method as implemented in R hclust function was used to visualize the compound 1 cellular potency data. The sensitive/moderate/resistant calls for each cell line was determined by visually inspecting the resulting clustering dendrogram. All the analyses were done in R Core Team.
smiles,measurement,setting,value
"CC(C)c1ccc(N(C)c2ccc3c(c2)OCC[C@H]3CNc2cnccc2C(=O)O)cc1 [Compound 1, 3-({[(4R)-7-{methyl[4-(propan-2-yl)phenyl]amino}-3,4-dihydro-2H-1-benzopyran-4-yl]methyl}amino)pyridine-4-carboxylic acid]",AUC,143B cell line,0.3582
same,Emax,143B cell line,2.196
same,AUC,647V cell line,0.3912
same,Emax,647V cell line,10.18
same,AUC,5637 cell line,0.4857
same,EC50,5637 cell line,0.00224 µM
same,IC50,5637 cell line,0.00611 µM
same,Emax,5637 cell line,33.01
same,AUC,7860 cell line,0.5049
same,IC50,"168 h, HS688AT, skin, NS",> 10 µM
same,IC50,"168 h, HS739T, breast, NS",> 10 µM
same,IC50,"168 h, HS839T, skin, NS",> 10 µM
same,IC50,"168 h, HS852T, skin, NS",> 10 µM
same,IC50,"168 h, HUH28, biliary tract, NS",> 10 µM
same,IC50,"168 h, KG1, haematopoietic and lymphoid tissue, acute myeloid leukaemia",> 10 µM
same,IC50,"168 h, KURAMOCHI, ovary, undifferentiated carcinoma",> 10 µM
same,IC50,"168 h, NMCG1, central nervous system, NS",> 10 µM
same,IC50,"168 h, SKMEL31, skin, NS",> 10 µM
same,IC50,"168 h, T24, urinary tract, transitional cell carcinoma",> 10 µM
same,IC50,"168 h, TE1, oesophagus, squamous cell carcinoma",> 10 µM
same,IC50,"168 h, TE8, oesophagus, squamous cell carcinoma",> 10 µM
same,AUC,A101D cell line,0.4689
same,Emax,A101D cell line,20.46
same,AUC,"A204, soft tissue, NS, 168 hours",0.7136
same,AUC,A375 cell line,0.4405
same,Emax,A375 cell line,19.51
same,AUC,A549 cell line,0.573
same,AUC,A2058 cell line,0.5694
same,AUC,A2780 cell line,0.1811
same,AUC,ACHN cell line,0.453
same,AUC,AGS cell line,0.3536
same,Emax,AGS cell line,14.1129
same,AUC,ASPC1 cell line,0.5812
same,AUC,AZ521 cell line,0.2875
same,AUC,BFTC905 cell line,0.3989
same,Emax,BFTC905 cell line,13.74
same,AUC,BICR18 cell line,0.619
same,EC50,BICR18 cell line,0.187 µM
same,IC50,BICR18 cell line,0.194 µM
same,AUC,BICR22 cell line,0.6829
same,IC50,BICR22 cell line,> 10 µM
same,AUC,"BT20, breast, ductal carcinoma, 168 hours",0.9117
same,AUC,"BT474, breast, ductal carcinoma, 168 hours",0.7206
same,AUC,BT549 cell line,0.431
same,Emax,BT549 cell line,20.55
same,AUC,BXPC3 cell line,0.5738
same,AUC,"C2BBE1, large intestine, adenocarcinoma, 168 hours",0.8303
same,AUC,C32 cell line,0.2532
same,AUC,CAKI1 cell line,0.5319
same,Emax,CAKI1 cell line,34.03
same,AUC,"CAL27, upper aerodigestive tract, squamous cell carcinoma, 168 hours",0.8335
same,AUC,"CALU1, lung, squamous cell carcinoma, 168 hours",1.217
same,AUC,"CALU3, lung, adenocarcinoma, 168 hours",0.7277
same,AUC,CALU6 cell line,0.4595
same,Emax,CALU6 cell line,18.32
same,AUC,CAOV3 cell line,0.3908
same,Emax,CAOV3 cell line,19.3273
same,AUC,CAPAN1 cell line,0.6391
same,AUC,"CAPAN2, pancreas, ductal carcinoma, 168 hours",0.8808
same,AUC,"CCFSTTG1, central nervous system, astrocytoma, 168 hours",0.879
same,AUC,CFPAC1 cell line,0.5227
same,Emax,CFPAC1 cell line,29.22
same,AUC,CHL1 cell line,0.3493
same,AUC,COLO205 cell line,0.4833
same,Emax,COLO205 cell line,27.13
same,AUC,COLO320HSR cell line,0.2403
same,AUC,COLO679 cell line,0.502
same,AUC,COLO680N cell line,0.5311
same,Emax,COLO680N cell line,33.76
same,AUC,COLO741 cell line,0.4186
same,Emax,COLO741 cell line,18.78
same,AUC,COLO829 cell line,0.6557
same,AUC,CORL279 cell line,0.3155
same,AUC,"DAOY, central nervous system, NS, 168 hours",0.9684
same,AUC,DAUDI cell line,0.5383
same,Emax,DAUDI cell line,25.4109
same,AUC,DETROIT562 cell line,0.5873
same,Emax,DETROIT562 cell line,36.51
same,AUC,DLD1 cell line,0.226
same,AUC,"DMS53, lung, small cell carcinoma, 168 hours",0.7426
same,AUC,DMS79 cell line,0.3845
same,AUC,DMS153 cell line,0.6737
same,AUC,DMS273 cell line,0.4815
same,AUC,DU145 cell line,0.4324
same,Emax,DU145 cell line,18.16
same,AUC,DV90 cell line,0.3698
same,Emax,DV90 cell line,11.78
same,AUC,ECGI10 cell line,0.5683
same,EC50,ECGI10 cell line,≥ 10 µM
same,IC50,ECGI10 cell line,0.0224 µM
same,AUC,FTC133 cell line,0.4146
same,Emax,FTC133 cell line,22.3385
same,AUC,"G361, skin, NS, 168 hours",1.044
same,AUC,G401 cell line,0.2508
same,AUC,GAK cell line,0.6649
same,IC50,GAK cell line,> 10 µM
same,AUC,GI1 cell line,0.6237
same,AUC,GP2D cell line,0.506
same,EC50,"GP2d, GP2D cell line",0.0206 µM
same,IC50,"GP2d, GP2D cell line",0.0262 µM
same,AUC,GRANTA519 cell line,0.4686
same,Emax,GRANTA519 cell line,17.91
same,AUC,"HCC38, breast, ductal carcinoma, 168 hours",0.9864
same,AUC,HCC70 cell line,0.4135
same,Emax,HCC70 cell line,13.85
same,AUC,HCC78 cell line,0.5315
same,AUC,HCC95 cell line,0.4072
same,AUC,"HCC827, lung, adenocarcinoma, 168 hours",0.8814
same,AUC,HCC1143 cell line,0.6906
same,AUC,HCC1187 cell line,0.465
same,Emax,HCC1187 cell line,34
same,AUC,"HCC1419, breast, ductal carcinoma, 168 hours",0.7201
same,AUC,"HCC1428, breast, NS, 168 hours",0.7818
